Test: In vitro antioxidant effect by the inhibition of AAPH-induced lysis of human red blood cells (RBC)
Format: functional

NCCS[C@H]1c2c(O)cc(O)cc2O[C@H](c2ccc(O)c(O)c2)[C@@H]1O and N[C@@H](CS[C@H]1c2c(O)cc(O)cc2O[C@H](c2ccc(O)c(O)c2)[C@@H]1O)C(=O)O are within 1.5-fold of each other in IC50: 89.4 µM for the first, 74.9 µM for the second.

For Oc1cc(O)c2c(c1)O[C@H](c1ccc(O)c(O)c1)[C@H](O)C2 [(-)-EPICATECHIN], the IC50 was 120 µM.

From ChEMBL document CHEMBL1137041, “Novel epicatechin derivatives with antioxidant activity modulate interleukin-1beta release in lipopolysaccharide-stimulated human blood” (Bioorg Med Chem Lett, 2004)
